Measurements taken from patent US10799522B2, “Compositions and methods relating to galectin detection” (Wayne State University, priority 2015, dated 2020).
“Also recorded” adds a separate entry of the source.

Experiments:
[1] = dynamic PET/CT imaging, pharmacokinetics and biodistribution in a normal rat; format: in vivo, Sprague-Dawley rats
Description: Sprague-Dawley rats (males, ˜250 g) were anesthetized using inhalation of 2% isoflurane in oxygen, and their body temperature maintained at 37° C. by a heating pad with a feedback temperature control. […] Dynamic PET images were acquired in the list-mode and reconstructed using OSEM algorithm at multiple time frames post radiotracer administration (0-2, 2-4, 4-6, 6-8, 8-10, 10-20, 20-30, 30-40, 40-50, 50-60 min), followed by a whole body image that has been acquired using 3 consecutive bed positions, 5 min/bed position. Thereafter, while still fixed to the positioning bed, the rats were moved with the bed into the gantry of the INVEON SPECT/CT (Siemens) and CT images were acquired over the whole body area for attenuation correction of PET images and for production of PET/CT images. PET/CT fusion images were generated and analyzed using the AMIDE software version 1.0.4. […] The data was analyzed using GraphPad Prism version 6 (GraphPad Prism, Inc.) and pharmacokinetic parameters of clearance were calculated by fitting the resultant time-activity curves with exponential or bi-exponential functions.

[2] = system: orthotopic human breast carcinoma xenograft (MCF10DCIS); test: dynamic PET/CT imaging, pharmacokinetics and biodistribution in tumor-bearing mice; format: in vivo, immunedeficient nu/nu mice
Description: A single (unilateral) orthotopic breast carcinoma xenograft was established in immunedeficient nu/nu mice by injection of human breast ductal carcinoma in situ cells (MCF10DCIS) in Matrigel into one of the upper mammary fat pad.
Tumor-bearing mice (˜20-25 g) were anesthetized using inhalation of 2% isoflurane in oxygen, and their body temperature maintained at 38° C. by a heating pad with a feedback temperature control. […] Dynamic PET images were acquired in list-mode and reconstructed using OSEM algorithm at multiple time frames post radiotracer administration (0-2, 2-4, 4-6, 6-8, 8-10, 10-20, 20-30, 30-40, 40-50, 50-60 min). Thereafter, while still fixed to the positioning bed, the mice were moved with the bed into the gantry of INVEON SPECT/CT (Siemens), and CT images were acquired over the whole body area for attenuation correction of PET images and for production of PET/CT images. PET/CT fusion images were generated and analyzed in a similar manner as when studying rats.

[3] = rats, i.v., bi-exponential clearance from the blood
[4] = rats, i.v., mono-exponential kinetics
[5] = tumor-bearing mice, i.v., bi-exponential clearance from the blood
[6] = tumor-bearing mice, mono-exponential kinetics

OCC1OC(SC2OC(CO)C(O)C(n3cc(-c4cccc([18F])c4)nn3)C2O)C(O)C(n2cc(-c3cccc(F)c3)nn2)C1O [[^18F]FPTDG, 3-(3-[^18F]fluorophenyltriazolyl)-3-deoxy-3′-(3-fluorophenyltriazolyl)-3′-deoxy-1-thio-β-D-digalactopyranoside]
defluorination ([1]; [^18F]-fluoride radioactivity accumulation in the bone): Minimal, but detectable
radioactivity levels in all major organs and tissues, including the liver and gall bladder ([1]; after 75 min post intravenous administration): very low
primary radiation dose-limiting organs ([1]; based on dynamic PET/CT imaging results): liver and gall bladder; also recorded: liver and gallbladder
pharmacologic toxicity ([1]; radiotracer doses): No pharmacologic toxicity can be anticipated or actually observed; also recorded: No acute pharmacologic toxicity at radiotracer doses has been observed
accumulation or retention of radioactivity in the lungs, muscles, and other organs and tissues ([1]; rats, i.v.): extremely low; also recorded: No substantial uptake or retention
crossing of the blood-brain barrier (radioactivity in the brain) ([1]; rats, i.v.): does not cross the blood-brain barrier (BBB)
route of excretion ([1]; rats, i.v.): predominantly via the hepatobiliary route of excretion; also recorded: primarily excreted via the hepatobiliary route
blood fast clearance half-time [1, 3]: 0.5 min
blood slow clearance half-time [1, 3]: 7.36 min
kidney clearance half-time [1, 4]: 68 min
liver clearance half-time [1, 4]: 53 min
renal clearance ([1]; rats, i.v., radioactivity in the bladder): insignificant
magnitude of catabolism ([1]; rats, bone accumulation at 60-75 min post injection): negligible
retention in MCF10DCIS xenografts ([2]; 20 to 60 min post i.v. injection): significant retention
accumulation of radioactivity in normal mammary fat pads ([2]; mice, PET/CT): no accumulation of radioactivity was detectable
accumulation or retention of radioactivity in the lungs, muscles, and other organs and tissues ([2]; mice, i.v.): extremely low
crossing of the blood-brain barrier (radioactivity in the brain) ([2]; mice, i.v.): does not cross the blood-brain barrier (BBB) in mice either
magnitude of catabolism ([2]; mice, bone accumulation at 60 min post injection): negligible
increased binding and accumulation in MCF10DCIS, as compared to normal breast tissue and muscle (Logan graphical analysis) ([2]; mice, muscle as reference tissue): 2-3 fold
renal clearance ([2]; mice, radioactivity in the bladder): more active in mice, as compared with rats
route of excretion ([2]; tumor-bearing mice, i.v.): predominantly via the hepatobiliary route of excretion
blood fast clearance half-time [2, 5]: ~0.5 min
blood slow clearance half-time [2, 5]: ~10.5 min
kidney clearance half-time [2, 6]: 37 min
liver clearance half-time [2, 6]: ~120 min
